The values that follow come from patent US20230181582A1, “COMPOSITIONS AND METHODS FOR TREATING LUNG INJURIES ASSOCIATED WITH VIRAL INFECTIONS” (Qx Therapeutics Inc., priority 2020, published 2023).

Series [1] concerns MAP3K2/MAP3K3. Particulars: cited from earlier work; for inhibition of MAP3K2/MAP3K3-mediated phosphorylation of p47phox: substrate p47phox.
The subject of series [2] is mouse ALI models. Conditions: cited from earlier work.
The conditions of series [3]: reported; cited from earlier work.
The conditions of series [4]: reported; cited from earlier work. This is another data set of the same source.
For series [5], the system named is mouse coronavirus (MHV-1) induced acute lung injury model. Nature of the series: Survival and body weight loss in mouse coronavirus (MHV-1) induced acute lung injury model. Particulars: 3 mg/kgbw once daily for 5 days since 24 hr after virus inoculation. It is filed as in vivo, A/J mice.
Series [6] has the same test system. Nature of the series: Pulmonary permeability (FITC-albumin in BAL) in mouse coronavirus (MHV-1) induced acute lung injury model. It is filed as in vivo, A/J mice.
A further series concerns neutrophils. Particulars: cited from earlier work.
Another series deals with patients. Conditions: cited from earlier work.
For series [7], the system named is mouse ALI models. It is filed as in vivo.
Series [8] relates to MAP3K2/MAP3K3. Nature of the series: Inhibition of MAP3K2/MAP3K3-mediated phosphorylation of substrates (p47phox, MEK5). It is filed as biochemical.

Consider `Cc1ccc(NC(=O)c2ccc(CN3CCN(C)CC3)cc2)cc1Nc1nccc(-c2cccnc2)n1` [imatinib], for which, in the series on MAP3K2/MAP3K3 [1], the “inhibition of MAP3K2/MAP3K3-mediated phosphorylation of p47phox” value was “do not inhibit”.

As usually defined, the half-life is the time in which the quantity being followed falls by half. Consider `COC(=O)c1ccc2c(c1)NC(=O)/C2=C(\Nc1ccc(N(C)C(=O)CN2CCN(C)CC2)cc1)c1ccccc1` [nintedanib, Methyl (3Z)-3-{[(4-{methyl[(4-methylpiperazin-1-yl)acetyl]amino}phenyl)amino](phenyl)methylidene}-2-oxo-2,3-dihydro-1H-indole-6-carboxylate], for which the “reduction of ALI in mouse models” value in the series on mouse ALI models [2] is listed as “reduce ALI”. Further, the “inhibition of MAP3K2/MAP3K3-mediated phosphorylation of p47phox” value in the series on MAP3K2/MAP3K3 [1] is “also inhibits”. Further, the protein binding in series [3] is reported as 97.8%. Besides, the half-life in [4] is 10 to 15 h.

As for `Cc1ccc(Nc2nccc(N(C)c3ccc4c(C)n(C)nc4c3)n2)cc1S(N)(=O)=O` [pazopanib, 5-({4-[(2,3-Dimethyl-2H-indazol-6-yl)methylamino]pyrimidin-2-yl}amino)-2-methylbenzenesulfonamide], the “inhibition of other substrates of MAP3K2/MAP3K3 such as MEK5” value with MAP3K2/MAP3K3 [1] (substrate MEK5) was “μM levels”. In addition, in the series on MAP3K2/MAP3K3 [1], the “inhibition of MAP3K2/MAP3K3-mediated phosphorylation of p47phox” value is recorded as “low nM levels”. Also, the survival rate result in [5] (FIG. 6) is listed as “does not affect”. Moreover, the body weight loss entry in series [5] (FIG. 7) is on record as “does not affect”. The protein binding in series [3] is given as over 99.5%. Besides, the pulmonary permeability result was “significantly reduce” in series [6] (2 doses at 3 mg/kgbw retro-orbital (24, 33 hr after 6000 PFU MHV-1), FIG. 2); “significantly reduce” in series [6] (3 doses at 3 mg/kgbw retro-orbital (6, 21, 32 hr after 5000 PFU MHV-1), FIG. 1); “significantly reduce” in series [6] (one dose 3 mg/kgbw at 24 hr after virus inoculation, FIG. 3); “significantly reduce” in [6] (one dose 3 mg/kgbw at 48 hr after virus inoculation, FIG. 4); “negligible effect” in series [6] (one dose 3 mg/kgbw at 72 hr after virus inoculation, FIG. 5). The bioavailability in series [4] is 14-21%. Further, the half-life in [4] is 30.9 to 31.9 h. Further, in the series with neutrophils, the ROS levels entry is “elevates ROS levels”. Further, the “ILD/pneumonitis reported in patients in the clinical trials” value with patients (clinical trials) is reported as 0.1%. Besides, the “patients who developed a pneumothorax” value in the series on patients (randomized RCC trial) was “[t]wo of 290”. The “pneumothorax occurrence in patients treated” value in the series with patients (randomized STS trial (8/240)) was 3%. Moreover, in the series on mouse ALI models [7] (acid and LPS ALI models), the “mortality rate in acid and LPS models” value is listed as “impact mortality rate”. Further, the “prophylactic effect on lung injury in acid and LPS models” value in the series with mouse ALI models [7] (acid and LPS ALI models, prophylactic) is “prophylactic effect”. Also, in the series with mouse ALI models [7] (two mouse ALI/ARDS models, dependent on MAP3K2/3 and ROS production), the “ameliorating ALI in the two mouse ALI/ARDS models” value is given as “effective in ameliorating ALI”. Further, the “affinity as p47phox substrate-specific inhibitor for MAP3K2 and 3” value in the series with MAP3K2/MAP3K3 [8] is recorded as “low nanomolar”.
